Values joined by “and” are separate entries in the source; they are usually repeats but may differ in a detail not shown here. Equal values may be shown once. “Also recorded” adds a separate entry of the source.
Columns and labels:
[1] = Peptide stability in mouse plasma (UPLC); type: in vitro ADME; details: for Recovered Peptide after 1 h in Mouse Plasma [%]: CD-1 mouse plasma, 37 °C, esters recovered as the corresponding acid
Protocol: (§1) The in vitro stability of peptides was assessed according to a previously described protocol with modifications. Peptides (3 g/L, 49 µL) dissolved in […] (DMSO/TWEEN 80/normal saline (5/5/90, v/v/v) were diluted with pooled mouse dipotassium ethylenediaminetetraacetic acid containing pooled plasma (Innovative Research, Novi, MI, USA) or pooled human cerebrospinal fluid (CSF) (both BioIVT, Westbury, NY, USA) to a total volume of 500 µL. The final peptide concentration was kept constant at 315 µmol/L in all experiments. The mixture was incubated (37 °C, 750 rpm; Thermomixer, Eppendorf AG, Hamburg, Germany) and an aliquot (95 µL) was taken at 0, 5, 15, 60, and 300 min. For peptide quantification, the sample was mixed with aqueous acetonitrile (90%, v/v, 300 µL) containing FA, 0.1% v/v and incubated on ice for 30 min. After two centrifugation steps (21,100× g, 3 min, Sorvall Legend Micro 21R Centrifuge, Thermo Scientific, Waltham, MA, USA), the supernatant (300 µL) was collected, freeze-dried (FreeZone Triad Cascade Benchtop, Labcono, Kansas City, MO, USA), reconstituted in aqueous acetonitrile (4.5%, v/v) containing FA (0.1%, v/v), and stored at −20 °C. Samples were analyzed by ultra-performance liquid chromatography (UPLC).
An ACQUITY UPLC H-Class chromatography system (Waters, Milford, MA, USA) coupled on-line to a photodiode array detector (absorbance recorded at 214 nm, Waters) and to the electrospray ionization source on a mass spectrometer (QDa detector, Waters) operated in the positive ion mode was used. Separation relied on a BEH-C18 column (inner diameter: 1.1 mm; length: 50 mm; particle size: 1.7 µm, Waters) at a flow rate of 0.1 mL/min using a linear aqueous acetonitrile gradient in the presence of FA (0.1%, v/v). Ionization was carried out at a source temperature of 450 °C using a cone voltage of 10 V and a capillary voltage of 1.5 kV. Mass spectra were typically acquired for an m/z range from 50 to 1250 at a sampling rate of 2 points per second. Quantities of the degraded peptides and resulting metabolites were estimated using peak areas of the UV signal at 214 nm relative to the initial peak areas (t = 0). Metabolites were identified using mass spectrometry by detecting the singly charged molecular ions.

human DOR = target: T1, human DOR (Homo sapiens, UniProt P41143); experiment: Competitive radioligand ([3H]DADLE) displacement assay at DOR; type: binding; details: analog at 6 nM
T1 construct: host or cells: COS-1 cells
Protocol: The binding affinity of peptides to the DOR was performed by Eurofins Cerep SA (Celle-Lévescault, France) using a competitive radioligand displacement assay according to a previously described method.

female CD-1 mice [2] = experiment: Hot-plate test; type: in vivo, mouse; details: for Antinociception (AUC0-5h, %MPE·h): s.c. 20 µmol/kg (~13 mg/kg), female CD-1 mice
Protocol: Animal use and procedures were in accordance with the guidelines of The University of British Columbia animal care committee and the Canadian Council for Animal Care (CCAC, Protocol code: A17-0128, approval date: 30 August 2018). Experiments involved adult female CD-1 mice (25–30 g) housed under a 12 h light/dark cycle and had ad libitum access to rodent chow and water. Mice were allowed an acclimatization period of at least one week in the animal facility before experiments. Subcutaneous (s.c.) or intraperitoneal (i.p.) injections of drugs or vehicles were administered to animals at a volume of 10 mL/kg. In the formalin foot assay, each mouse was used once and euthanized immediately upon completion of the experiment due to irreversible tissue damage in the injected paw.
(§2) A commercially available hot-plate analgesia meter consisting of a round aluminum surface with (25 cm diameter) from Harvard Apparatus (Holliston, MA, USA) was used. A day before the experiment mice were acclimatized for 5 min in a transparent Plexiglas cylinder (height, 30 cm; diameter, 25 cm) on the switched-off hot-plate apparatus. Thereafter, the baseline latency of each animal was measured on the hot surface (52.0 ± 0.1 °C, 30 s cut-off time to prevent tissue damage) until a nociceptive response was induced. The animal was immediately removed from the hot surface after licking, lifting, or fluttering of the hind paws was observed. Latency responses after treatment were obtained in the same way. The %MPE for each animal was calculated using this equation: %MPE = (LR − BR)/(MR − BR)100%, where LR, MR, and BR represent measured, maximum (30 s), and baseline (~5 s) response time, respectively. The AUC for each animal was calculated from the %MPE time courses using this equation: AUC = (%MPE(Tp1) + %MPE(Tp2))·(Tp2 − Tp1)/2, where Tp represents the time interval between adjacent time points on the curve. Data were plotted as mean ± SEM.

female CD-1 mice [3] = experiment: Tolerance study, hot-plate after repeated dosing; type: in vivo, mouse; details: multidose tolerance and physical dependence tests, 5-point scale
Text: (§3) Throughout the eight-day duration of experiments investigating the development of physical dependence and tolerance, clinical health scores (CHS) of mice on a 5-point scale (0 normal and 5 highest severity) provided by the University of British Columbia Animal Care Committee were monitored. Scores were given in 5 categories (appearance (grooming, posture), behavior (gait, activity), local injection site skin appearance, neurological signs, and body weight). Based on the guidelines, mice with a score of 5 in any category or a cumulative score of >15, or body weight loss of >20% would be euthanized.
as §2, with “A day before the experiment mice were acclimatized for 5 min in a transparent Plexiglas cylinder (height, 30 cm; diameter, 25 cm) on the switched-off hot-plate apparatus.” left out, “The animal was immediately removed from the hot surface after licking, lifting, or fluttering of the hind paws was observed. Latency responses after treatment were obtained in the same way.” left out, “Data were plotted as mean ± SEM.” left out

female CD-1 mice [4] = experiment: Safety test in mice, escalating doses; type: in vivo, mouse
Text: as §3
Mice were then monitored for mortality and clinical signs including respiratory activity, body weight, hydration, behavior (self-biting and circling), and pain assessment (Facial Grimace) to determine the maximum tolerated dose.

[5] = Peptide stability in human cerebrospinal fluid (UPLC); type: in vitro ADME; details: pooled human cerebrospinal fluid, pooled human CSF, read-out: peptide recovered in CSF after 5 h of incubation
Protocol: as §1, with “After two centrifugation steps (21,100× g, 3 min, Sorvall Legend Micro 21R Centrifuge, Thermo Scientific, Waltham, MA, USA), the supernatant (300 µL) was collected, freeze-dried (FreeZone Triad Cascade Benchtop, Labcono, Kansas City, MO, USA), reconstituted in aqueous acetonitrile (4.5%, v/v) containing FA (0.1%, v/v), and stored at −20 °C.” left out
An ACQUITY UPLC H-Class chromatography system (Waters, Milford, MA, USA) coupled on-line to a photodiode array detector (absorbance recorded at 214 nm, Waters) and to the electrospray ionization source on a mass spectrometer (QDa detector, Waters) operated in the positive ion mode was used. […] Quantities of the degraded peptides and resulting metabolites were estimated using peak areas of the UV signal at 214 nm relative to the initial peak areas (t = 0). […]

female CD-1 mice [6] = experiment: Respiratory depression assay; type: in vivo, mouse
Protocol: The respiratory rate was assessed in awake mice lightly restrained in a well-ventilated 50 mL falcon tube with a darkened tip. Prior to the drug treatment, each animal was habituated in the tube for 30 min. The falcon tube was secured onto a stand facing lengthwise towards a video camera. […] Animals were recorded at selected time points for 10 min to measure the respiration rate.

female CD-1 mice [7] = experiment: Dependence study, Nlx-induced jumps; details: 8 days, Nlx 4 mg/kg i.p.
Protocol: Two hours after the last injection at 3 PM, mice received an i.p. injection of Nlx (4 mg/kg), after which they were immediately placed in a Plexiglas cylinder (height, 30 cm; diameter, 25 cm). The number of jumps induced by Nlx, defined as simultaneous removal of all four paws from the ground surface, were counted.

mice = details: mouse, in vivo; cited from earlier work
C57BL6 mice = details: cited from earlier work
female CD-1 mice [8] = experiment: Formalin foot assay; type: in vivo, mouse; details: morphine 10 mg/kg s.c.
Protocol: On the day of the experiment, mice were acclimatized to the experimental setup by putting them in darkened, non-transparent plexiglas cylinders (height, 20 cm; diameter, 9 cm) placed on a glass plane for 2 h. […] After successful injection, mice were immediately placed into cylinders and their behavior was monitored for 1 h. Video cameras (Lorex Technology, Markham, ON, Canada) underneath each animal were used to record the nociceptive responses defined as licking or biting at the formalin injected right paw. The accumulated licking and biting time of each animal was determined and recorded in 5 min bins. The total response time was plotted as early phase 1 from 0 to 5 min, and late phase 2 from 20 to 40 min after formalin injection.

[9] = day six of treatment; cited from earlier work
plasma = details: cited from earlier work
[10] = pooled mouse dipotassium ethylenediaminetetraacetic acid containing pooled plasma; details: 37 °C, up to 300 min
[11] = morphine s.c. 10 mg/kg, hot-plate

T1 sequence (P41143 whole entry): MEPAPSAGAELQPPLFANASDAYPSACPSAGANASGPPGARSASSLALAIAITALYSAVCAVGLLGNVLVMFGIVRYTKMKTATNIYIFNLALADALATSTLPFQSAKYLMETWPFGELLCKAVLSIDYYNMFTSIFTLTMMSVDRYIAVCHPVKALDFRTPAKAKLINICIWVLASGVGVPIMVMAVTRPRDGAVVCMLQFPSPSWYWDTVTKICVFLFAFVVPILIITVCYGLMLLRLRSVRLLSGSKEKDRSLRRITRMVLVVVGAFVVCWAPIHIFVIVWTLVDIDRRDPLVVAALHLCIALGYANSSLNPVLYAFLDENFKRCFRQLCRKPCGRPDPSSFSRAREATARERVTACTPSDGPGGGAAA

Compound: COC(=O)[C@H](CC(C)C)NC(=O)[C@H](Cc1ccccc1)NC(=O)CNC(=O)CNC(=O)[C@H](Cc1ccc(O)cc1)NC(C)=O [KK-14]
- Recovered Peptide after 1 h in Mouse Plasma [%] [1]: 82 ± 5%

Compound: COC(=O)[C@H](CC(C)C)NC(=O)[C@H](Cc1ccccc1)NC(=O)CNC(=O)CNC(=O)[C@H](Cc1ccc(O)cc1)NC(=O)Cc1ccccc1 [KK-81]
- Recovered Peptide after 1 h in Mouse Plasma [%] [1]: 88 ± 7%
- Relative Binding to DOR Compared to Leu-ENK [%] (human DOR): 41 ± 25%

Compound: CCCCCC(=O)N[C@@H](Cc1ccc(O)cc1)C(=O)NCC(=O)NCC(=O)N[C@@H](Cc1ccccc1)C(=O)N[C@@H](CC(C)C)C(=O)OC [KK-93]
- Antinociception (AUC0-5h, %MPE·h) (female CD-1 mice [2]; hot-plate): 51 ± 13 %MPE·h
- Recovered Peptide after 1 h in Mouse Plasma [%] [1]: 85 ± 7%

Compound: COC(=O)[C@H](CC(C)C)NC(=O)[C@H](Cc1ccccc1)NC(=O)CNC(=O)CNC(=O)[C@H](Cc1ccc(O)cc1)NC(=O)C(C)(C)C [KK-102]
- increase of antinociception AUC compared to Leu-ENK (female CD-1 mice [2]; hot-plate, s.c. ~13 mg/kg): 8 fold
- Antinociception (AUC0-5h, %MPE·h) (female CD-1 mice [2]; hot-plate): 112 %MPE·h and 112 ± 24 %MPE·h
- Recovered Peptide after 1 h in Mouse Plasma [%] [1]: 94 ± 5% and 94 ± 3%
- half-life ([1]; mouse, plasma): 2.5 min

Compound: CC(C)C[C@H](NC(=O)[C@H](Cc1ccccc1)NC(=O)CNC(=O)CNC(=O)[C@H](Cc1ccc(O)cc1)NC(=O)C(C)(C)C)C(=O)O [KK-103]
- Recovered Peptide after 1 h in Mouse Plasma [%] [1]: 93 ± 1%
- extrapolated plasma half-life ([1]; mouse plasma in vitro, extrapolated from 5 h incubation): 37 h
- remaining at 5 h, 315 µmol/L ([1]; mouse, pooled mouse K2EDTA plasma, 5 h, plasma, read-out: intact peptide remaining in plasma after 5 h of incubation): > 90%
- increase of plasma half-life over Leu-ENK ([1]; plasma in vitro): ~ 90 fold and 90 fold
- clinical health score (CHS) (female CD-1 mice [3]): 0
- abnormal behaviors / clinical scores at maximum deliverable dose (female CD-1 mice [4]; s.c. 650 mg/kg): did not show any signs of abnormal behaviors
- maximum deliverable dose (safe) (female CD-1 mice [4]; s.c., limited by solubility): 650 mg/kg
- remaining at 5 h, 315 µmol/L [5]: > 95%
- respiration rate versus vehicle (female CD-1 mice [6]; KK-103 13 mg/kg s.c., 30 to 240 min): comparable to that of mice treated with vehicle
- physical dependence, Nlx-induced jumps in first 10 min (female CD-1 mice [7]; KK-103 13 mg/kg twice daily): not a single jump was observed

Compound: C=CCCC(=O)N[C@@H](Cc1ccc(O)cc1)C(=O)NCC(=O)NCC(=O)N[C@@H](Cc1ccccc1)C(=O)N[C@@H](CC(C)C)C(=O)OC [KK-105]
- Recovered Peptide after 1 h in Mouse Plasma [%] [1]: 80 ± 7%

Compound: CCCCCCCC(=O)N[C@@H](Cc1ccc(O)cc1)C(=O)NCC(=O)NCC(=O)N[C@@H](Cc1ccccc1)C(=O)N[C@@H](CC(C)C)C(=O)OC [KK-108]
- Antinociception (AUC0-5h, %MPE·h) (female CD-1 mice [2]; hot-plate): 48 ± 15 %MPE·h
- Recovered Peptide after 1 h in Mouse Plasma [%] [1]: 73 ± 4%

Compound: COC(=O)[C@H](CC(C)C)NC(=O)[C@H](Cc1ccccc1)NC(=O)CNC(=O)CNC(=O)[C@H](Cc1ccc(O)cc1)NC(=O)C1CCCCC1 [KK-112]
- Antinociception (AUC0-5h, %MPE·h) (female CD-1 mice [2]; hot-plate): 51 ± 10 %MPE·h
- Recovered Peptide after 1 h in Mouse Plasma [%] [1]: 62 ± 4%

Compound: CC(C)C[C@H](NC(=O)[C@H](Cc1ccccc1)NC(=O)CNC(=O)CNC(=O)[C@@H](N)Cc1ccc(O)cc1)C(=O)O [Leu-ENK, Leu-Enkephalin]
- Antinociception (AUC0-5h, %MPE·h) (female CD-1 mice [2]; hot-plate): 14 %MPE·h and 14 ± 6 %MPE·h
- peak antinociception (female CD-1 mice [2]; s.c. 13 mg/kg, hot-plate): ~ 10 %MPE
- time of decline of antinociception to baseline (female CD-1 mice [2]; s.c. 13 mg/kg, hot-plate): 1.5 h
- time of peak antinociception post-injection (female CD-1 mice [2]; s.c. 13 mg/kg, hot-plate): 1 h
- intact peptide remaining in plasma after 5 h of incubation ([1]; 5 h, plasma): undetectable
- Recovered Peptide after 1 h in Mouse Plasma [%] [1]: 23 ± 3% and 23 ± 2%
- remaining at 5 h, 315 µmol/L [5]: > 80%

Compound: CN1CC[C@]23c4c5ccc(O)c4O[C@H]2[C@@H](O)C=C[C@H]3[C@H]1C5 [morphine]
- decrease of breathing rate (mice): 1.7 fold
- antinociception at 2 h (female CD-1 mice [2]; morphine s.c. 10 mg/kg, 2 h): ~ 10 %MPE
- maximum antinociception (female CD-1 mice [2]; [11]): 87 %MPE
- time to maximum antinociception (female CD-1 mice [2]; [11]): ≤ 15 min
- time of peak effect (C57BL6 mice): 20 min
- decrease of respiratory rate compared with vehicle (female CD-1 mice [6]; morphine 10 mg/kg s.c., 30 min post-injection): 56%
- reduction of paw licking and biting time compared to control, phase 1 (female CD-1 mice [8]; phase 1 (0–5 min)): 30%
- nociceptive response, phase 2 (female CD-1 mice [8]; phase 2 (20–40 min)): completely diminished the nociceptive response
- physical dependence, Nlx-induced withdrawal (female CD-1 mice [7]; morphine 10 mg/kg twice daily): significant withdrawal syndromes
- residual effect of morphine [9]: approximately 30%

Compound: H2N-YGGFL-COOH
- cleaved bond (plasma): Tyr-Gly, first_seen; also recorded: Gly-Phe
- fragment found [10]: H2N-GGFL-COOH, major; also recorded: H2N-FL-COOH, major

Source: paper PMC8308721 (Pharmaceutics, 2021)
